Reference: patent US5141735A (priority 1990, dated 1992)
Read-outs that look alike come from different tables or passages of the source.

Legend:
viremia = conditions: cited from earlier work
[1] = tested on: HIV-1-infected CEM-cells (strain N1T); assay: Anti-HIV effect: reduction of immunofluorescence-positive CEM cells (cell-associated viral antigens); type: cell-based
Description: (§1) Compounds were tested directly for their anti-HIV effect. The assay protocols for the inhibition of HIV-cytopathic effect and the reduction of cell-associated viral antigens were modified from published procedures (Mitsuya, et al. P.N.A.S, USA 83:1911 (1986), and Hedenskog et al., J. Med. Virol. 19:325 (I986)).
(§2) High titer virus stocks (HIV-1 NIT strain or HIV-2 uc-1 strain) were grown in CD4^+ CR10 cells in RMPI-1640 media (Gibco Laboratories) supplemented with 10% fetal calf serum and 0.1 mg/ml Gentamicin. The collected media were filtered through a 0.8 micron filter and virus isolates were concentrated 100 fold and stored at -80° C.
(§3) CD4^+ CEM cells, propagated in the same medium, were incubated for 60 minutes at 37° C. with diluted stock virus at a multiplicity of infection equal to 1 (MOI=1, approximately 1 pg p24 or 4,000 viral particles per cell). Cells were washed three times with phosphate buffered saline and resuspended in the medium at 2×10^5 cells/ml. Various quantities of the test compound in DMSO, synthesized as described above were added. Four days after infection, the number of live cells were counted by trypan blue exclusion (Mitsuya, et al. Proc. Natl. Acad. Sci. 83:1911 (1986)). At the same time, aliquots of cells were fixed with acetone and stained with antibodies from AIDS patients, followed by a second staining with fluorescein-conjugated goat anti-human IgG (Cappel). Cells stained with the fluorescent antibody were counted using a fluorescence microscope and the results were expressed as percentage of the total number of cells counted (Hedenskog et al., J. Med. Virol 19:325 (1986)).
*ID50 (μM) is the concentration of test compound that reduces the
number of immunofluorescence positive cells by 50%.

HIV-1-infected CEM-cells = assay: Inhibition of HIV-cytopathic effect: live cell count by trypan blue exclusion; type: cell-based
Description: as §1, §2, §3

viral p24 antigen = assay: Viral p24 antigen in culture media measured by ELISA; type: cell-based, HIV; conditions: acutely infected CEM cells, FIG. 2
Description: As an additional measure of anti-HIV activity, the amount of p24 antigen in the culture media was measured by ELISA (Abbott) according to the procedure described by the manufacturer. This measurement is an indication of HIV virus replication.

viral RNA = assay: Cell-associated viral RNA by RNA-RNA hybridization/reversible target capture; type: cell-based, HIV; conditions: acutely infected CEM cells, FIG. 2
Description: In addition, the viral RNA in infected cells was quantified with an RNA-RNA hybridization/reversible target capture procedure [Gillespie et al. Molecular and Cellular Probes, 2:73 (1989)]. Reagents were purchased from GeneTrack System (MA, USA) and assays were carried out according to the procedure described by the manufacturers. 2×10^5 live cells, determined by trypan blue exclusion, were used in each assay.

HIV-TAT [2] = assay: Anti-HIV-TAT transfection assay (SeAP under HIV-LTR vs RSV-LTR in COS cells); type: cell-based; conditions: 1-50 μM; HIV-LTR/SeAP relative to RSV-LTR/SeAP; added 24 hours post transfection; average of at least three tests
Description: The compounds of the present invention were also tested for anti-HIV-TAT activity in an anti-TAT assay described in co-pending patent application U.S. Ser. No. 07/428,555, filed on Oct. 30, 1989, and hereby incorporated by reference. This assay comprises the following steps:
(a) putting both the expression of the Secreted Alkaline Phosphatase (SeAP) gene and the viral transactivator TAT gene under the control of the HIV promoter LTR responsive to the action of the HIV transactivator TAT;
(b) transfecting cultured mammalian cells with plasmids which contain the gene constructs of (a) above and cause cellular production of the transactivating factor TAT and SeAP;
(c) adding the agent to be tested, here compounds of formula I; and
(d) determining the amount of SeAP produced by measuring SeAP enzymatic activity, whereby inhibition of SeAP production correlates with the anti-TAT inhibition activity.
In this assay, the inhibition of SeAP positively correlates with anti-TAT activity. The greater the ability of an agent to inhibit SeAP, the greater is its anti-TAT activity.
Specifically, with respect to the results reported below, the anti-HIV-TAT assay was run as follows: […]
determined by measuring the amount of alkaline phosphatase in […]
calculated according to the formula: […]

HIV-TAT [3] = assay: Anti-HIV-TAT activity in CHO-derived cell lines constitutively expressing SeAP under HIV-LTR; type: cell-based; conditions: FIG. 4
Description: (§4) Compounds of formula I were also tested for anti-HIV-TAT activity with cell lines that constitutively express the SeAP gene under the control of the HIV-LTR. Cell lines 193c, 191F and 199F were derived from CHO cells (cell line of Chinese hamster ovary origin). Each line is of clonal origin and has the HIV-LTR/SeAP and the HIV-LTR/TAT sequences integrated in the cellular chromosome. One day after cells were plated (approximately 30% confluency), a compound of formula I in DMSO (0.05% final concentration) was added to the culture media at desired concentrations. The cells were washed and Compound A was replenished one day later. SeAP activity was assayed two days after the second addition of test compound. The cytotoxic effect of the compound was measured with a MTT assay, an art-recognized measurement of cytotoxicity. See Denigot et al., J. Immunol. Methods 89:271 (1986). This assay also confirmed the specific anti-TAT activity of applicants' compounds.

[4] = tested on: Cell lines 193c, 191F and 199F; assay: Cytotoxicity by MTT assay in CHO-derived cell lines 193c, 191F and 199F; type: cell-based, Chinese hamster; conditions: FIG. 4
Description: The Y-axis is (1) the percent inhibition in TAT transactivation measured according to SeAP activity in culture media (discussed infra), and (2) a measurement of cytotoxicity based on an MTT assay. The MTT assay is a known tetrazolium-based assay which measures the viability of cells. The X-axis is the concentration of compound. The solid circles, diamonds and squares represent the three different cell lines identified at the bottom of the Figure.
as §4, with “This assay also confirmed the specific anti-TAT activity of applicants' compounds.” left out

HIV = conditions: body weight; cited from earlier work
[5] = Human immunodeficiency virus 1, CCRF-CEM, 96 h, concentration that reduces the number of immunofluorescence positive cells by 50%, Table I, read-out: Anti-HIV ID50

## Cc1cn([C@H]2C[C@H](N=[N+]=[N-])[C@@H](CO)O2)c(=O)[nH]c1=O [AZT]
viremia
  elimination of viremia in patients: does not eliminate viremia in patients
viremia; patients
  drug resistance: eventually the appearance of drug-resistant mutant viruses is evidenced

## CNC1=Nc2ccc(Cl)cc2C(c2ccc[nH]2)=NC1 [Compound A, 7-chloro-N-methyl-5-(1H-pyrrol-2-yl)-3H-1,4-benzodiazepin-2-amine]
[1]; Human immunodeficiency virus 1, CCRF-CEM, 96 h, FIG. 1, HIV-1-infected CEM-cells (strain N1T), read-out: ID50 (the source's name)
  IC50: 500 nM
[1]; Human immunodeficiency virus 1, CCRF-CEM, 96 h, FIG. 1, HIV-1-infected CEM-cells (strain N1T), read-out: ID90 (the source's name)
  IC90: 1000 nM
[1]; [5]
  IC50: 500 to 1000 nM
[1]; increasing amounts of compound, FIG. 1
  percentage of cells that are immunofluorescence-positive following staining with HIV antibodies: decline in the percentage of cells that are immunofluorescence-positive
HIV-1-infected CEM-cells; 5 μM, FIG. 1, HIV-1-infected CEM-cells
  survival rate for the HIV-infected cells: very close to that of uninfected cells
HIV-1-infected CEM-cells; FIG. 1
  survival of HIV-infected cells with increasing concentrations: greater survival of HIV-infected cells
HIV-1-infected CEM-cells; acutely infected CEM cells, FIG. 2
  cell survival in comparison to AZT or ddC: at least similar, and at several compound concentrations, better, cell survival than AZT or ddC
Viral p24 antigen
  amount of viral p24 antigen: dramatically reduces
Viral RNA
  amount of cell-associated viral RNA: dramatically reduces
HIV-TAT [2]
  Anti-HIV-TAT Activity (% Inhibition): > 60%
HIV-TAT [3]
  inhibition of SeAP expression under the control of the HIV-LTR promoter: significantly inhibits SeAP expression
[4]
  cytotoxic effect on the cells: no cytotoxic effect on the cells

## NC1=Nc2ccc(Cl)cc2C(c2ccc[nH]2)=NC1 [NH2, 7-chloro-5-(1H-pyrrol-2-yl)-3H-1,4-benzodiazepin-2-amine]
[1]; [5]
  IC50: 1000 nM
HIV-TAT [2]
  Anti-HIV-TAT Activity (% Inhibition): > 60%

## Nc1ccn([C@H]2CC[C@@H](CO)O2)c(=O)n1 [ddC]
HIV
  virustatic dose range in most patients: 5 to 250 µg/kg
